In patent US20230042881A1, “MODULATORS OF INTEGRATED STRESS RESPONSE PATHWAY” (Praxis Biotech LLC, priority 2021, published 2023) one finds activity and IC50 data, which are given here for 21 compounds.

Experiment [1] relates to Chinese hamster ovary (CHO) cells. In words: Protein synthesis assay (puromycin incorporation, Western blot). The class given is cell-based. As to conditions: Cricetulus griseus, read-out: % Protein synthesis relative to untreated (1 μM test compound). As for the experimental part:
Chinese hamster ovary (CHO) cells were maintained at 37° C. and 5% CO2 in Dulbecco's Modified Eagle's Media (DMEM) supplemented with 10% fetal bovine serum, 2 mM L-glutamine, 100 U/ml penicillin, and 100 μg/ml streptomycin. After reaching 80% of confluence, cells were detached and seeded on 6 well plates in complete media, allowed to recover overnight and treated for 2 hours with 1 μM of the test compound (to assess protein synthesis levels in unstressed condition), or for 2 hours with 300 nM Tg in the presence of 1 μM of the test compound (to assess the recovery of protein synthesis in a stressed condition). Cells with Tg alone were used as controls.
After the 2 hours treatments, media were replaced by adding 10 μg/ml puromycin (Sigma Aldrich #P8833) in complete media for 30 min. Media were removed and cells were lysed with SDS-PAGE lysis buffer. Lysates were transferred to 1.5 ml tubes and sonicated for 3 min and total protein amount were quantified using BCA Protein Assay Kit (Pierce). Equal amount of protein (30 μg) was loaded on SDS-PAGE gels.
A HRP-conjugated secondary antibody (Rockland) was employed to detect immune-reactive bands using enhanced chemiluminescence (ECL Western Blotting Substrate, Pierce). Quantification of protein bands was done by densitometry using ImageJ software.
The percentage levels were normalized to the media alone condition, which correspond to 100% protein synthesis. […]
(In general: Immunoblotting shows a protein as a band on a membrane.)

The test system of a further experiment is ATF4. As to the kind of experiment: ATF4 expression inhibition assay (ATF4 5′UTR luciferase reporter, thapsigargin-stressed). To be noted: Homo sapiens, HEK-293T, read-out: ATF4 inhibition. The class given is cell-based. As for the experimental part: The ATF4 reporter was prepared by fusing the human full length 5′UTR of ATF4 (NCBI Accession No. BC022088.2) upstream of the firefly luciferase coding sequence lacking the initiator methionine. The fused sequence was cloned into pLenti-EF1a-C-Myc-DDK-IRES-Puro cloning vector (Origen #PS100085) using standard methods.
HEK293T cells carrying the ATF4 luciferase reporter were plated on 96-well plates (Nunc) at 10,000 cells per well. Cells were treated two days after seeding with 100 nM thapsigargin (Tg) (Sigma-Aldrich #T9033) in the presence of different concentrations of selected compounds ranging from 0.1 nM to […]. Cells without treatment or cells treated with Tg alone were used as controls. Assay plates containing cells were incubated for 3 hours at 37° C.
Luciferase reactions were performed using Luciferase Assay System (Promega #E1501) as specified by the manufacturer. Luminescence was read with an integration time of 1 s and a gain of 110 using a Cytation-5 multi-mode microplate reader (BioTek).
On the technique in general: In a reporter assay the amount or activity of a reporter protein is the signal.

Where [2] appears, read: unstressed CHO cells (without Tg), 2 hours, 1 μM test compound, media alone = 100%.
Setting [3] is: HEK293T cells carrying ATF4 luciferase reporter, 100 nM thapsigargin (Tg), 3 hours at 37° C.

Where two headings read alike, the source gives them in different places.

`O=C(NN1CCC(C(=O)Nc2ccc3cc(Cl)ccc3n2)CC1)c1cc2cc(Cl)ccc2o1` [Compound 12, 1-(5-chlorobenzofuran-2-carboxamido)-N-(6-chloroquinolin-2-yl)piperidine-4-carboxamide]: the activity at 1 µM in experiment [1] (setting [2]) worked out at 121%. Besides, in the experiment on ATF4 (setting [3]), the IC50 was less than 10 nM.
`O=C(COc1ccc(Cl)c(F)c1)N[C@H]1CC[C@H](C(=O)Nc2nc3cc(Cl)ccc3o2)CC1` [Compound 13, trans-4-(2-(4-chloro-3-fluorophenoxy)acetamido)-N-(5-chlorobenzo[d]oxazol-2-yl)cyclohexane-1-carboxamide]: the activity at 1 µM in experiment [1] (CHO, 2 h) turned out to be 104%. In addition, the IC50 in the experiment on ATF4 (3 h) fell in the range of 10 to 100 nM.
In the case of `O=C(COc1ccc(Cl)c(F)c1)N[C@H]1CC[C@H](C(=O)Nc2nc3cc(Cl)ccc3s2)CC1` [Compound 14, trans-4-(2-(4-chloro-3-fluorophenoxy)acetamido)-N-(5-chlorobenzo[d]thiazol-2-yl)cyclohexane-1-carboxamide], the activity at 1 µM in experiment [1] (setting [2]) worked out at 105%. The IC50 in the experiment on ATF4 (setting [3]) was less than 10 nM.
Taken in the same sequence, the figures for `O=C(COc1ccc(Cl)c(F)c1)NC1CCN(C(=O)Nc2ccc3cc(Cl)ccc3n2)CC1` [Compound 15, 4-(2-(4-chloro-3-fluorophenoxy)acetamido)-N-(6-chloroquinolin-2-yl)piperidine-1-carboxamide] were 177% and 10 to 100 nM.
As for `O=C(COc1ccc(Cl)c(F)c1)NN1CCC(C(=O)Nc2ccc3cc(Cl)ccc3n2)CC1` [Compound 16, 1-(2-(4-chloro-3-fluorophenoxy)acetamido)-N-(6-chloroquinolin-2-yl)piperidine-4-carboxamide], in experiment [1] (setting [2]), the activity at 1 µM turned out to be 133%. In the experiment with ATF4 (setting [3]), the IC50 was less than 10 nM.
For `O=C(Nc1ccc2cc(Cl)ccc2n1)[C@H]1CC[C@H](C(=O)Nc2ccc3cc(Cl)ccc3n2)CC1` [Compound 17, trans-N^1,N^4-bis(6-chloroquinolin-2-yl)cyclohexane-1,4-dicarboxamide] the same measures were 110% and 10 to 100 nM.
With `O=C(COc1ccc(Cl)cc1)NN1CCC(C(=O)Nc2ccc3cc(Cl)ccc3n2)CC1` [Compound 18, 1-(2-(4-chlorophenoxy)acetamido)-N-(6-chloroquinolin-2-yl)piperidine-4-carboxamide], in experiment [1] (setting [2]), the activity at 1 µM was 75.6%. Also, the IC50 with ATF4 (setting [3]) is less than 10 nM.
Taken in the same sequence, the figures for `O=C(NN1CCC(C(=O)Nc2ccc3cc(Cl)ccc3n2)CC1)c1ccc2cc(Cl)ccc2n1` [Compound 19, 6-chloro-N-(4-((6-chloroquinolin-2-yl)carbamoyl)piperidin-1-yl)quinoline-2-carboxamide] were 122% and less than 10 nM.
As to `O=C(COc1ccc(Cl)c(F)c1)N[C@H]1CC[C@H](C(=O)NCc2ccc3cc(Cl)ccc3n2)CC1` [Compound 22, trans-4-(2-(4-chloro-3-fluorophenoxy)acetamido)-N-((6-chloroquinolin-2-yl)methyl)cyclohexanecarboxamide], in experiment [1] (setting [2]), the activity at 1 µM is 100%. The IC50 with ATF4 (setting [3]) fell in the range of 10 to 100 nM.
`O=C(CO[C@H]1C[C@@H](OC(F)(F)F)C1)N[C@H]1CC[C@H](C(=O)Nc2ccc3cc(Cl)ccc3n2)CC1` [Compound 24, trans-N-(6-chloroquinolin-2-yl)-4-(2-(cis-3-(trifluoromethoxy)cyclobutoxy)acetamido)cyclohexanecarboxamide]: in experiment [1] (setting [2]), the activity at 1 µM stood at 99.3%. Besides, the IC50 in the experiment with ATF4 (setting [3]) was less than 10 nM.
`O=C(CO[C@H]1C[C@@H](OC(F)(F)F)C1)NN1CCC(C(=O)Nc2ccc3cc(Cl)ccc3n2)CC1` [Compound 25, N-(6-chloroquinolin-2-yl)-1-(2-((1s, 3s)-3-(trifluoromethoxy)cyclobutoxy)acetamido)piperidine-4-carboxamide]: the activity at 1 µM in experiment [1] (setting [2]) was 96.1%. The IC50 with ATF4 (setting [3]) is less than 10 nM.
As for `O=C(Nc1ccc2cc(Cl)ccc2n1)[C@H]1CC[C@H](C(=O)N[C@H]2C[C@@H](OC(F)(F)F)C2)CC1` [Compound 31, trans-N1-(6-chloroquinolin-2-yl)-N4-(cis-3-(trifluoromethoxy)cyclobutyl)cyclohexane-1,4-dicarboxamide], in experiment [1] (setting [2]), the activity at 1 µM came out at 88.3%. Further, in the experiment with ATF4 (setting [3]), the IC50 was 10 to 100 nM.
Turning to `O=C(COc1ccc(C(F)(F)F)cc1)N[C@H]1CC[C@H](C(=O)Nc2ccc3cc(Cl)ccc3n2)CC1` [Compound 35, trans-N-(6-chloroquinolin-2-yl)-4-(2-(4-(trifluoromethyl)phenoxy)acetamido)cyclohexanecarboxamide], the activity at 1 µM in experiment [1] (setting [2]) was found to be 82.9%. Besides, the IC50 in the experiment with ATF4 (setting [3]) is less than 10 nM.
As for `O=C(COc1ccc(OC(F)(F)F)cc1)N[C@H]1CC[C@H](C(=O)Nc2ccc3cc(Cl)ccc3n2)CC1` [Compound 36, trans-N-(6-chloroquinolin-2-yl)-4-(2-(4-(trifluoromethoxy)phenoxy)acetamido)cyclohexanecarboxamide], the activity at 1 µM in experiment [1] (setting [2]) was found to be 160%. For the same compound, the IC50 with ATF4 (setting [3]) was less than 10 nM.
For `O=C(COc1ccc(Cl)c(F)c1)N[C@H]1CC[C@H](C(=O)NCc2cc3cc(Cl)ccc3o2)CC1` [Compound 39, trans-4-(2-(4-chloro-3-fluorophenoxy)acetamido)-N-((5-chlorobenzofuran-2-yl)methyl)cyclohexanecarboxamide], the activity at 1 µM in experiment [1] (setting [2]) worked out at 170%. Further, the IC50 with ATF4 (setting [3]) was in the range of 10 to 100 nM.
Take `O=C(COc1ccc(Cl)c(F)c1)NN1CCC(C(=O)NCc2cc3cc(Cl)ccc3o2)CC1` [Compound 40, 1-(2-(4-chloro-3-fluorophenoxy)acetamido)-N-((5-chlorobenzofuran-2-yl)methyl)piperidine-4-carboxamide]: the activity at 1 µM in experiment [1] (setting [2]) was 121%. The IC50 in the experiment with ATF4 (setting [3]) was less than 10 nM.
Regarding `O=C(N[C@H]1CC[C@H](C(=O)NCc2cc3cc(Cl)ccc3o2)CC1)c1ccc2cc(Cl)ccc2n1` [Compound 43, 6-chloro-N-(trans-4-(((5-chlorobenzofuran-2-yl)methyl)carbamoyl)cyclohexyl)quinoline-2-carboxamide], the activity at 1 µM in experiment [1] (setting [2]) was 85.2%. For the same compound, the IC50 in the experiment with ATF4 (setting [3]) is less than 10 nM.
In the case of `O=C(NN1CCC(C(=O)NCc2cc3cc(Cl)ccc3o2)CC1)c1ccc2cc(Cl)ccc2n1` [Compound 44, 6-chloro-N-(4-(((5-chlorobenzofuran-2-yl)methyl)carbamoyl)piperidin-1-yl)quinoline-2-carboxamide], the activity at 1 µM in experiment [1] (setting [2]) was found to be 96.8%. For the same compound, the IC50 in the experiment on ATF4 (setting [3]) was less than 10 nM.
For `O=C(N[C@H]1CC[C@H](C(=O)NCc2cc3cc(Cl)ccc3o2)CC1)c1cc2cc(Cl)ccc2o1` [Compound 47, 5-chloro-N-(trans-4-(((5-chlorobenzofuran-2-yl)methyl)carbamoyl)cyclohexyl)benzofuran-2-carboxamide], the activity at 1 µM in experiment [1] (setting [2]) worked out at 103%. Besides, the IC50 in the experiment on ATF4 (setting [3]) was less than 10 nM.
`O=C(NN1CCC(C(=O)NCc2cc3cc(Cl)ccc3o2)CC1)c1cc2cc(Cl)ccc2o1` [Compound 48, 1-(5-chlorobenzofuran-2-carboxamido)-N-((5-chlorobenzofuran-2-yl)methyl)piperidine-4-carboxamide]: in experiment [1] (setting [2]), the activity at 1 µM was 109%. In the experiment with ATF4 (setting [3]), the IC50 is less than 10 nM.
For `O=C(N[C@H]1CC[C@H](C(=O)NCc2cc3cc(Cl)ccc3o2)CC1)C1CNc2cc(Cl)ccc2O1` (stereo partly drawn) [Compound 49, 6-chloro-N-(trans-4-(((5-chlorobenzofuran-2-yl)methyl)carbamoyl)cyclohexyl)-3,4-dihydro-2H-benzo[b][1,4]oxazine-2-carboxamide] the same measures were 122% and 10 to 100 nM.
